Holding throughout (experiment): relative viability (nuclei count vs DMSO), 5 days (fraction); higher = more cells survive
Compound in the assay “SGI-1776 + Linsitinib”: CN1CCC(CNc2ccc3ncc(-c4cccc(OC(F)(F)F)c4)n3n2)CC1 [SGI-1776] + C[C@]1(O)C[C@@H](c2nc(-c3ccc4ccc(-c5ccccc5)nc4c3)c3c(N)nccn32)C1 [Linsitinib] (partner 1 µM)
Summed up:
(§1)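 Nuclei were stained with Hoechst during a one-step fixation (final 0.05% Triton X-100, 1% formaldehyde, 1 ug/ml Hoechst) carried out 5 days after dosing, then counted on 4× images. The cells, lung cancer lines in 1536-well plates, had been dosed by pin tool the day after seeding with one drug alone or a fixed anchor-drug dose plus five library-drug doses (not always all listed) in √10 steps. Relative viability is the nuclei count in treated wells divided by that in vehicle wells, and each value is the median of duplicate plates.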

Compound in assay [1]: C1COCCN1C2=NC(=NC3=C2OC4=C3C=CC=N4)C5=CC(=CC=C5)NC(=O)C6=CN=C(C=C6)N + O=C(c1cc(Cc2n[nH]c(=O)c3ccccc23)ccc1F)N1CCN(C(=O)C2CC2)CC1 [Olaparib] (partner 8 µM)
Summed up: as §1

Compound in the assay “SGI-1776 + Palbociclib”: CN1CCC(CNc2ccc3ncc(-c4cccc(OC(F)(F)F)c4)n3n2)CC1 [SGI-1776] + CC(=O)c1c(C)c2cnc(Nc3ccc(N4CCNCC4)cn3)nc2n(C2CCCC2)c1=O [Palbociclib] (partner 0.5 µM)
Summed up:
as §1

Compound in the assay “Entinostat + Palbociclib”: Nc1ccccc1NC(=O)c1ccc(CNC(=O)OCc2cccnc2)cc1 [Entinostat] + CC(=O)c1c(C)c2cnc(Nc3ccc(N4CCNCC4)cn3)nc2n(C2CCCC2)c1=O [Palbociclib] (partner 0.5 µM)
Summed up:
as §1

Regarding UMC-11, the relative viability with SGI-1776 + Linsitinib (first compound 0.08 µM) is 1.06; in the assay with SGI-1776 + Linsitinib (first compound 0.8 µM), 0.987; with SGI-1776 + Linsitinib (first compound 2.53 µM) it was 0.971; with SGI-1776 + Linsitinib (first compound 8 µM) it was 0.836; in assay [1] (first compound 0.02 µM), 0.374; in assay [1] (first compound 0.06325 µM) it was 0.37. In addition, the relative viability is 0.354 in assay [1] (first compound 0.2 µM); 0.359 in assay [1] (first compound 0.6325 µM); 0.246 in assay [1] (first compound 2 µM); 0.366 in the assay with SGI-1776 + Palbociclib (first compound 0.08 µM); 0.338 in the assay with SGI-1776 + Palbociclib (first compound 0.8 µM); 0.378 with SGI-1776 + Palbociclib (first compound 2.53 µM). Moreover, the relative viability with SGI-1776 + Palbociclib (first compound 8 µM) came out at 0.312; with Entinostat + Palbociclib (first compound 0.02 µM), 0.367; in the assay with Entinostat + Palbociclib (first compound 0.06325 µM), 0.338; in the assay with Entinostat + Palbociclib (first compound 0.2 µM), 0.367; with Entinostat + Palbociclib (first compound 0.6325 µM) it was 0.274; with Entinostat + Palbociclib (first compound 2 µM), 0.202.

These data come from the supplement of paper PMC10307832.
